Experimental data published in patent publication US20230398130A1, “METHODS AND COMPOSITIONS FOR DIFFERENTIATING STEM CELLS” (Massachusetts Institute of Technology, priority 2020, published 2023).

Columns and labels:
[1] = tested on: ISC-enriched organoids; assay: Primary screen, 384-well 2.5-D organoid differentiation (ENR+CD, 6 days, Target Selective Inhibitor Library, vs whole-plate median): ATP (CellTiter-Glo 3D, CTG); conditions: for Dose.FC.CTG: primary screen, FC vs plate median; for Z.CTG: standard z score of FC
[2] = tested on: ISC-enriched organoids; assay: Primary screen, 384-well 2.5-D organoid differentiation (ENR+CD, 6 days): carbachol-induced lysozyme secretion (LYZ.S); assay type: cell-based, murine; conditions: primary screen, FC vs plate median
From the text: (§1) High-throughput screening.

[3] = tested on: ISC-enriched organoids; assay: Primary screen, 384-well 2.5-D organoid differentiation (ENR+CD, 6 days): basal lysozyme secretion (LYZ.NS); assay type: cell-based, murine; conditions: for Dose.FC.LYZ.NS: primary screen, FC vs plate median; for Z.LYZ.NS: standard z score of FC
From the text: as §1

## CC(C)(F)C[C@H](N[C@@H](c1ccc(-c2ccc(S(C)(=O)=O)cc2)cc1)C(F)(F)F)C(=O)NC1(C#N)CC1 [Odanacatib (MK-0822)]
[1]; Dose 0.08 uM
  Dose.FC.CTG: 0.119 log 2 fold change
  Z.CTG: 0.285
[1]; Dose 0.40 uM
  Dose.FC.CTG: 0.208 log 2 fold change
  Z.CTG: 0.496
[1]; Dose 2.00 uM
  Dose.FC.CTG: −0.008 log 2 fold change
  Z.CTG: −0.020
[1]; Dose 10.00 uM
  Dose.FC.CTG: 0.006 log 2 fold change
  Z.CTG: 0.015
[2]; Dose 0.08 uM
  Dose.FC.LYZ.S: 0.091 log 2 fold change
[2]; Dose 0.40 uM
  Dose.FC.LYZ.S: 0.170 log 2 fold change
[2]; Dose 2.00 uM
  Dose.FC.LYZ.S: 0.036 log 2 fold change
[2]; Dose 10.00 uM
  Dose.FC.LYZ.S: −0.074 log 2 fold change
[3]; Dose 0.08 uM
  Dose.FC.LYZ.NS: 0.086 log 2 fold change
  Z.LYZ.NS: 0.752
[3]; Dose 0.40 uM
  Dose.FC.LYZ.NS: 0.162 log 2 fold change
  Z.LYZ.NS: 1.409
[3]; Dose 2.00 uM
  Dose.FC.LYZ.NS: 0.024 log 2 fold change
  Z.LYZ.NS: 0.212
[3]; Dose 10.00 uM
  Dose.FC.LYZ.NS: −0.035 log 2 fold change
  Z.LYZ.NS: −0.307

## CC[C@@H]1/C=C/C=C/C[C@H](C)[C@H](O)[C@](C)(O)C(=O)[C@H](C)[C@@H](O)[C@H](C)C(=O)[C@H](C)[C@@H](O)[C@H](C)/C=C/C(=O)O[C@H]2[C@@H](C)[C@@H](CC1)O[C@@]1(CC[C@@H](C)[C@@H](C[C@H](C)O)O1)[C@@H]2C [Oligomycin A]
[1]; Dose 0.08 uM
  Dose.FC.CTG: −0.662 log 2 fold change
  Z.CTG: −1.581
[1]; Dose 0.40 uM
  Dose.FC.CTG: −0.706 log 2 fold change
  Z.CTG: −1.685
[1]; Dose 2.00 uM
  Dose.FC.CTG: −0.946 log 2 fold change
  Z.CTG: −2.261
[1]; Dose 10.00 uM
  Dose.FC.CTG: −1.244 log 2 fold change
  Z.CTG: −2.972
[2]; Dose 0.08 uM
  Dose.FC.LYZ.S: −0.243 log 2 fold change
[2]; Dose 0.40 uM
  Dose.FC.LYZ.S: −0.274 log 2 fold change
[2]; Dose 2.00 uM
  Dose.FC.LYZ.S: −0.269 log 2 fold change
[2]; Dose 10.00 uM
  Dose.FC.LYZ.S: −0.288 log 2 fold change
[3]; Dose 0.08 uM
  Dose.FC.LYZ.NS: −0.204 log 2 fold change
  Z.LYZ.NS: −1.778
[3]; Dose 0.40 uM
  Dose.FC.LYZ.NS: −0.231 log 2 fold change
  Z.LYZ.NS: −2.013
[3]; Dose 2.00 uM
  Dose.FC.LYZ.NS: −0.213 log 2 fold change
  Z.LYZ.NS: −1.857
[3]; Dose 10.00 uM
  Dose.FC.LYZ.NS: −0.223 log 2 fold change
  Z.LYZ.NS: −1.943

## CCc1c(C(=O)NCCc2ccc(N3CCCCC3)cc2)[nH]c2ccc(Cl)cc12 [Org 27569]
[1]; Dose 0.08 uM
  Dose.FC.CTG: 0.278 log 2 fold change
  Z.CTG: 0.663
[1]; Dose 0.40 uM
  Dose.FC.CTG: 0.072 log 2 fold change
  Z.CTG: 0.173
[1]; Dose 2.00 uM
  Dose.FC.CTG: 0.362 log 2 fold change
  Z.CTG: 0.865
[1]; Dose 10.00 uM
  Dose.FC.CTG: 0.270 log 2 fold change
  Z.CTG: 0.646
[2]; Dose 0.08 uM
  Dose.FC.LYZ.S: 0.174 log 2 fold change
[2]; Dose 0.40 uM
  Dose.FC.LYZ.S: 0.032 log 2 fold change
[2]; Dose 2.00 uM
  Dose.FC.LYZ.S: 0.059 log 2 fold change
[2]; Dose 10.00 uM
  Dose.FC.LYZ.S: 0.001 log 2 fold change
[3]; Dose 0.08 uM
  Dose.FC.LYZ.NS: 0.122 log 2 fold change
  Z.LYZ.NS: 1.060
[3]; Dose 0.40 uM
  Dose.FC.LYZ.NS: 0.051 log 2 fold change
  Z.LYZ.NS: 0.445
[3]; Dose 2.00 uM
  Dose.FC.LYZ.NS: 0.078 log 2 fold change
  Z.LYZ.NS: 0.683
[3]; Dose 10.00 uM
  Dose.FC.LYZ.NS: 0.029 log 2 fold change
  Z.LYZ.NS: 0.248

## CC(=O)c1cc([N+](=O)[O-])c(Sc2ccc(F)cc2F)s1 [P22077]
[1]; Dose 0.08 uM
  Dose.FC.CTG: −0.216 log 2 fold change
  Z.CTG: −0.516
[1]; Dose 0.40 uM
  Dose.FC.CTG: 0.049 log 2 fold change
  Z.CTG: 0.117
[1]; Dose 2.00 uM
  Dose.FC.CTG: −0.134 log 2 fold change
  Z.CTG: −0.320
[1]; Dose 10.00 uM
  Dose.FC.CTG: −0.130 log 2 fold change
  Z.CTG: −0.311
[2]; Dose 0.08 uM
  Dose.FC.LYZ.S: −0.182 log 2 fold change
[2]; Dose 0.40 uM
  Dose.FC.LYZ.S: 0.065 log 2 fold change
[2]; Dose 2.00 uM
  Dose.FC.LYZ.S: −0.007 log 2 fold change
[2]; Dose 10.00 uM
  Dose.FC.LYZ.S: −0.063 log 2 fold change
[3]; Dose 0.08 uM
  Dose.FC.LYZ.NS: 0.039 log 2 fold change
  Z.LYZ.NS: 0.338
[3]; Dose 0.40 uM
  Dose.FC.LYZ.NS: −0.005 log 2 fold change
  Z.LYZ.NS: −0.041
[3]; Dose 2.00 uM
  Dose.FC.LYZ.NS: 0.028 log 2 fold change
  Z.LYZ.NS: 0.248
[3]; Dose 10.00 uM
  Dose.FC.LYZ.NS: −0.056 log 2 fold change
  Z.LYZ.NS: −0.487

## C=CCc1cccc(/C=N/NC(=O)CN2CCN(Cc3ccccc3)CC2)c1O [PAC-1]
[1]; Dose 0.08 uM
  Dose.FC.CTG: 0.095 log 2 fold change
  Z.CTG: 0.228
[1]; Dose 0.40 uM
  Dose.FC.CTG: 0.113 log 2 fold change
  Z.CTG: 0.270
[1]; Dose 2.00 uM
  Dose.FC.CTG: −0.241 log 2 fold change
  Z.CTG: −0.576
[1]; Dose 10.00 uM
  Dose.FC.CTG: 0.002 log 2 fold change
  Z.CTG: 0.004
[2]; Dose 0.08 uM
  Dose.FC.LYZ.S: 0.128 log 2 fold change
[2]; Dose 0.40 uM
  Dose.FC.LYZ.S: 0.059 log 2 fold change
[2]; Dose 2.00 uM
  Dose.FC.LYZ.S: −0.006 log 2 fold change
[2]; Dose 10.00 uM
  Dose.FC.LYZ.S: 0.092 log 2 fold change
[3]; Dose 0.08 uM
  Dose.FC.LYZ.NS: 0.157 log 2 fold change
  Z.LYZ.NS: 1.365
[3]; Dose 0.40 uM
  Dose.FC.LYZ.NS: 0.053 log 2 fold change
  Z.LYZ.NS: 0.457
[3]; Dose 2.00 uM
  Dose.FC.LYZ.NS: 0.126 log 2 fold change
  Z.LYZ.NS: 1.094
[3]; Dose 10.00 uM
  Dose.FC.LYZ.NS: 0.068 log 2 fold change
  Z.LYZ.NS: 0.596
